Experimental data published in ChEMBL document CHEMBL4196200 (J Med Chem, 2018).
Active and inactive are the calls of the source. The calls are words filed in the database; no cut-off is given here.

Key:
Vasopressin V1a receptor [1] = molecular target: T1, Vasopressin V1a receptor (Homo sapiens, UniProt P37288); assay: Displacement of DY647 from SNAP-tagged V1A receptor (unknown origin) expressed in HEK293 cells by TR-FRET assay; format: cell-based
Vasopressin V2 receptor [2] = molecular target: T2, Vasopressin V2 receptor (Homo sapiens, UniProt P30518); assay: Displacement of DY647 from SNAP-tagged V2 receptor (unknown origin) expressed in HEK293 cells by TR-FRET assay; format: cell-based
[3] = molecular target: T3, Oxytocin receptor (Homo sapiens) (UniProt P30559); assay: Agonist activity at human OTR expressed in HEK cells assessed as increase in intracellular calcium flux incubated for 45 mins by Indo1-AM dye based fluorescence assay relative to OT; format: functional, cell-based
T3 sequence (whole entry): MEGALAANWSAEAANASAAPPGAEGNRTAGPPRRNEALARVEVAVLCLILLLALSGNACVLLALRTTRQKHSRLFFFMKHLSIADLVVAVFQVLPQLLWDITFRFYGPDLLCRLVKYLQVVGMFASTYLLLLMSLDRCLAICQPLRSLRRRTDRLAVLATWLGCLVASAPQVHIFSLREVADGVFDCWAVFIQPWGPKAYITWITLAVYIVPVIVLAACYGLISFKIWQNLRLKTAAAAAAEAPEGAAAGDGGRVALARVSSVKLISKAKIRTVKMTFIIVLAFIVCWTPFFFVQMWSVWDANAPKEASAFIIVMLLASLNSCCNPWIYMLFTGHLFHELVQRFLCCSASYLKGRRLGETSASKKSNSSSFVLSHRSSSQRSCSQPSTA

Mus musculus [4] = assay: Improvement in social interaction in Oprm1-/- mouse model of autism spectrum disorders assessed as restoration of number of nose contacts at 10 mg/kg, ip pre-treated before open-field test for 10 mins; format: functional, organism-based
Mus musculus [5] = assay: Improvement in social interaction in Oprm1-/- mouse model of autism spectrum disorders assessed as restoration of time spent in nose contacts at 10 mg/kg, ip pre-treated before open-field test for 10 mins; format: functional, organism-based
Mus musculus [6] = assay: Improvement in social interaction in Oprm1-/- mouse model of autism spectrum disorders assessed as restoration of number of following episodes at 10 mg/kg, ip pre-treated before open-field test for 10 mins; format: functional, organism-based
Mus musculus [7] = assay: Effect on social interaction in Oprm1+/+ mouse model of autism spectrum disorders assessed as number of nose contacts at 10 mg/kg, ip pre-treated before open-field test for 10 mins; format: ADME, organism-based; conditions: in vivo
Mus musculus [8] = assay: (§1) Effect on social interaction in Oprm1+/+ mouse model of autism spectrum disorders assessed as time spent in nose contacts at 10 mg/kg, ip pre-treated before open-field test for 10 mins; format: ADME, organism-based; conditions: in vivo
Mus musculus [9] = assay: (§2) Effect on social interaction in Oprm1+/+ mouse model of autism spectrum disorders assessed as mean duration of nose contacts at 10 mg/kg, ip pre-treated before open-field test for 10 mins; format: ADME, organism-based; conditions: in vivo
Mus musculus [10] = assay: Effect on social interaction in Oprm1+/+ mouse model of autism spectrum disorders assessed as grooming episodes occurring after social contact at 10 mg/kg, ip pre-treated before open-field test for 10 mins; format: ADME, organism-based; conditions: in vivo
Mus musculus [11] = assay: Improvement in social interaction in Oprm1-/- mouse model of autism spectrum disorders assessed as restoration of mean duration of nose contacts at 20 mg/kg, ip pre-treated before open-field test for 10 mins; format: functional, organism-based
Mus musculus [12] = assay: Improvement in social interaction in Oprm1-/- mouse model of autism spectrum disorders assessed as suppression of grooming episodes occurring after social contact at 20 mg/kg, ip pre-treated before open-field test for 10 mins; format: functional, organism-based
Mus musculus [13] = assay: as §1; format: ADME, organism-based; conditions: in vivo; remark: listed apart in the source
Mus musculus [14] = assay: as §2; format: ADME, organism-based; conditions: in vivo; remark: listed apart in the source
Mus musculus [15] = assay: Effect on social interaction in Oprm1+/+ mouse model of autism spectrum disorders assessed as number of following episodes at 10 mg/kg, ip pre-treated before open-field test for 10 mins; format: ADME, organism-based; conditions: in vivo
[16] = molecular target: T3, Oxytocin receptor (Homo sapiens); assay: Agonist activity at human OTR receptor expressed in HEK293FT cells assessed as stimulation of calcium release by Aequorin based assay relative to OT; format: functional, cell-based
Vasopressin V2 receptor [17] = molecular target: T2, Vasopressin V2 receptor; assay: Agonist activity at human V2 receptor expressed in HEK293FT cells assessed as stimulation of calcium release by Aequorin based assay; format: functional, cell-based
Vasopressin V1a receptor [18] = molecular target: T1, Vasopressin V1a receptor; assay: Antagonist activity at human V1a receptor expressed in HEK293FT cells assessed as inhibition of AVP-induced calcium release by Aequorin based assay; format: functional, cell-based
Oxytocin receptor = molecular target: T4, Oxytocin receptor (Homo sapiens, UniProt P30559); assay: Agonist activity at human OTR receptor expressed in HEK293FT cells incubated for 30 mins by beta-arrestin recruitment assay; format: functional, cell-based
T4 sequence (P30559 whole entry): T3 sequence (whole entry)

[19] = molecular target: T3, Oxytocin receptor (Homo sapiens); assay: Agonist activity at human OTR receptor expressed in HEK293FT cells incubated for 30 mins by beta-arrestin recruitment assay relative to OT; format: functional, cell-based
Vasopressin V2 receptor [20] = molecular target: T2, Vasopressin V2 receptor; assay: Agonist activity at human V2 receptor expressed in HEK293FT cells incubated for 30 mins by beta-arrestin recruitment assay relative to AVP; format: functional, cell-based
Vasopressin V1a receptor [21] = molecular target: T1, Vasopressin V1a receptor; assay: Antagonist activity at human V1a receptor expressed in HEK293FT cells assessed as inhibition of AVP-induced response incubated for 30 mins by beta-arrestin recruitment assay; format: functional, cell-based
Vasopressin V1a receptor [22] = molecular target: T1, Vasopressin V1a receptor
Description: Agonist activity at human V1a receptor expressed in HEK293FT cells assessed as stimulation of calcium release by Aequorin based assay

Vasopressin V1b receptor = molecular target: T5, Vasopressin V1b receptor (Homo sapiens, UniProt P47901)
T5 sequence (P47901 whole entry): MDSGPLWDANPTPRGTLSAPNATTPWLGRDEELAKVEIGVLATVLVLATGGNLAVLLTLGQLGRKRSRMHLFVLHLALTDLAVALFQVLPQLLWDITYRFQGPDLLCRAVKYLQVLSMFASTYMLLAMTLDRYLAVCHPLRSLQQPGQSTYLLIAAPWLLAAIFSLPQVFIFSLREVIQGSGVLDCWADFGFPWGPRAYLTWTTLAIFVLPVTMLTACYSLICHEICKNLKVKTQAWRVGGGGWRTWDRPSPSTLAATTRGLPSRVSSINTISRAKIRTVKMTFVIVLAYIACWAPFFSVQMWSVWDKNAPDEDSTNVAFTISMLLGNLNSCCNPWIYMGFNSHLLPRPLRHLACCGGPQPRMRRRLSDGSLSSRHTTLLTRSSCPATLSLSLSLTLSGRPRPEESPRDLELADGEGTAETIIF
Description: Agonist activity at human V1b receptor expressed in HEK293FT cells assessed as stimulation of calcium release by Aequorin based assay

Vasopressin V1a receptor [23] = molecular target: T1, Vasopressin V1a receptor; remark: listed apart in the source
Description: Agonist activity at human V1a receptor expressed in HEK293FT cells incubated for 30 mins by beta-arrestin recruitment assay

T2 sequence (P30518 whole entry): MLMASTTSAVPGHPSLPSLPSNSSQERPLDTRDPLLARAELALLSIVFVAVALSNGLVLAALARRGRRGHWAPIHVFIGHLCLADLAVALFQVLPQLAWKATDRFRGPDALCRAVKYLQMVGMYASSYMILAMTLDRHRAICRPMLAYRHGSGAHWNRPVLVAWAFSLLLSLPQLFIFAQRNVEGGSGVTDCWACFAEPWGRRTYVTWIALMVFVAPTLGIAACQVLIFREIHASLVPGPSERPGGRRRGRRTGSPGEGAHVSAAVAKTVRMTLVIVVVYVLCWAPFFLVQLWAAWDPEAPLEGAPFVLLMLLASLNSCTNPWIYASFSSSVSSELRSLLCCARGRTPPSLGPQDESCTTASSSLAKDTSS
T1 sequence (P37288 whole entry): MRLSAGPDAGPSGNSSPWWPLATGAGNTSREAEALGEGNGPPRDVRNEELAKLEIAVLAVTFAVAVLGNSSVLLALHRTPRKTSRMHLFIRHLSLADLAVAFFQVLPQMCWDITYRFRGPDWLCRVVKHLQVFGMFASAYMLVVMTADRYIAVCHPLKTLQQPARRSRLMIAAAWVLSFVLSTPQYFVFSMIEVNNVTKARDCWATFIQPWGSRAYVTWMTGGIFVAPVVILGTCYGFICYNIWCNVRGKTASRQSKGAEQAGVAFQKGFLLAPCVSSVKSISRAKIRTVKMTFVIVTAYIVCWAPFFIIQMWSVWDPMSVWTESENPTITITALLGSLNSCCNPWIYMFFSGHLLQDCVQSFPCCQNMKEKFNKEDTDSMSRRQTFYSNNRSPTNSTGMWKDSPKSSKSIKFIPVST

Cc1cc(C(=O)N2Cc3cnn(C)c3Nc3ccccc32)ccc1CNC(=O)N1CCC[C@H]1C(=S)N(C)C
Ki (Vasopressin V1a receptor [1]): 1250 nM
Ki (Vasopressin V2 receptor [2]): 1670 nM
Emax [3]: 52%
Activity (Mus musculus [4]): Active
Activity (Mus musculus [5]): Active
Activity (Mus musculus [6]): Active
Activity (Mus musculus [7]): Toxic
Activity (Mus musculus [8]): Non-Toxic
Activity (Mus musculus [9]): Non-Toxic
Activity (Mus musculus [10]): Non-Toxic
Activity (Mus musculus [11]): inactive
Activity (Mus musculus [12]): inactive
Activity (Mus musculus [13]): Toxic
Activity (Mus musculus [14]): Toxic
Activity (Mus musculus [15]): Toxic
Emax [16]: 96%
EC50 (Vasopressin V2 receptor [17]): 41 nM
IC50 (Vasopressin V1a receptor [18]): 5900 nM
EC50 (Oxytocin receptor): 62 nM
Emax [19]: 77%
Emax (Vasopressin V2 receptor [20]): 97%
IC50 (Vasopressin V1a receptor [21]): 2200 nM
EC50 (Vasopressin V1a receptor [22]): Not Active
EC50 (Vasopressin V1b receptor): Not Active
IC50 (Vasopressin V1a receptor [23]): Not Active
